Patent US7226935B2, “Hypoglycemic agent” (Japan Science and Technology Corporation, priority 2001, dated 2007)

Experiments:
rat fat cells = experiment: Inhibition of free fatty acid release from epinephrine-stimulated rat fat cells; assay type: cell-based; details: 10^-5 M epinephrine, 3 hours at 37° C., VOSO4 is 1.00 mM, other values are relative to it, read-out: IC50 (mM), concentration that inhibits 50% fatty acid release
Protocol: According to the method described in Biol. Pharm.
In silicon-processed vials, the fat cells isolated in the above (2.5×10^6 cells/ml) were pre-incubated in 1 ml of KRB buffer that contains a varying concentration (10^−4, 5×10^−4, 10^−3 M) of VOSO4 different Zn(II) complexes of the invention and 20 mg/ml of BSA, at 37° C. for 0.5 hours. Next, 10^−5 M of epinephrine was added to the reaction mixture, and the resulting solution was incubated at 37° C. for 3 hours. The reaction was stopped by cooling the mixture with ice, and the mixture was centrifuged at 3000 rpm for 10 minutes. The free fatty acid (FFA) level in the extracellular solution was measured with an NEFA kit, and IC50 of the test compound was calculated.

KK-A^y mice = experiment: Glucose tolerance (glucose load) test in KK-A^y mice after 14-day administration; assay type: in vivo; details: for effect in glucose load test compared with Zn(2-AM-py)2Cl2 or Zn(Car)2Cl2 / diabetic condition in glucose load test: FIG. 21 and FIG. 22, 14-day intraperitoneal administration; for diabetic condition in glucose load test: vs diabetic control mice
From the text: This is a glucose load test effected according to the method described in Biochem. Biophys. Res. Comm., 281, 1190-1193 (2001), in which the zinc(II) complex of the invention was intraperitoneally administered to KK-A^y mice for 14 days or was not thereto. […]

Molecule | IC50 (rat fat cells) | other results
bis-(S)-2-(1-aminoethyl)pyridine/zinc(II) complex [Zn((S)-2-AM-py)2Cl2] | 0.39 mM | 
O=S(=O)([O-])[O-].[O]=[V+2] [VOSO4, oxovanadium sulfate, reference compound] | 1 mM | 
C[C@H](O)C(=O)O.C[C@H](O)C(=O)O.[Zn] [Zn(Lac)2, L-lactic Acid (Lac)/zinc(II) complex] | 0.81 mM | 
L-carnitine (γ-trimethyl-β-hydroxybutyrobetaine=Car)/zinc(II) complex [Zn(Car)2Cl2] | 0.8 mM | 
bis(vitamin U)/zinc(II) complex [Zn(Vit-U)Cl2] | 0.84 mM | effect in glucose load test compared with Zn(2-AM-py)2Cl2 or Zn(Car)2Cl2 (KK-A^y mice): somewhat lower; diabetic condition in glucose load test (KK-A^y mice): significantly ameliorated
bis(glycyl-N,N′-ethylene-L-alanyl-L-alanine ethyl ester)/zinc(II) complex [Zn(Gly-eAA-OEt)2Cl2] | 0.85 mM | 

The next lines start with results.

IC50 (rat fat cells) | Molecule | other results
0.8 mM | O=C1O[C@H]([C@@H](O)CO)C(O)=C1[O-].O=C1O[C@H]([C@@H](O)CO)C(O)=C1[O-].[Zn+2] [Zn(Vit-C)2, bis(L-ascorbic acid)/zinc(II) complex] | 
0.98 mM | bis(quinic acid)/zinc(II) complex [Zn(Qui)2] | effect in glucose load test compared with Zn(2-AM-py)2Cl2 or Zn(Car)2Cl2 (KK-A^y mice): somewhat lower; diabetic condition in glucose load test (KK-A^y mice): significantly ameliorated
0.85 mM | bis(2-aminomethylpyridine)/zinc(II) complex [Zn(2-AM-py)2Cl2] | blood glucose level after 120 minutes (KK-A^y mice; FIG. 19, 13-hour fasting after 14-day intraperitoneal administration, 1 g/kg glucose orally): almost the normal level; peak top of blood glucose level after glucose administration (KK-A^y mice; FIG. 19, 13-hour fasting after 14-day intraperitoneal administration, 1 g/kg glucose orally, vs no complex administration): low peak top; blood glucose level after 120 minutes (KK-A^y mice; FIG. 20, 13-hour fasting after 14-day administration, 1 g/kg glucose orally): almost the normal level; peak top of blood glucose level after glucose administration (KK-A^y mice; FIG. 20, 13-hour fasting after 14-day administration, vs oral L-carnitine and acacia solution alone): low peak top
0.4 mM | bis-(R)-2-(1-aminoethyl)pyridine (=α-pyridylethylamine)/zinc(II) complex [Zn((R)-2-AM-py)2Cl2] | 
